Laboratory results from PMC2698043 (Journal of medicinal chemistry, 2009).

Key:
human PNP [1] = target: T1, human PNP (Homo sapiens, UniProt P00491); experiment: biochemical
human PNP [2] = target: T1, human PNP
blood PNP = blood PNP (Mus musculus, UniProt P23492); settings: mice
Chain of blood PNP (P23492 whole entry): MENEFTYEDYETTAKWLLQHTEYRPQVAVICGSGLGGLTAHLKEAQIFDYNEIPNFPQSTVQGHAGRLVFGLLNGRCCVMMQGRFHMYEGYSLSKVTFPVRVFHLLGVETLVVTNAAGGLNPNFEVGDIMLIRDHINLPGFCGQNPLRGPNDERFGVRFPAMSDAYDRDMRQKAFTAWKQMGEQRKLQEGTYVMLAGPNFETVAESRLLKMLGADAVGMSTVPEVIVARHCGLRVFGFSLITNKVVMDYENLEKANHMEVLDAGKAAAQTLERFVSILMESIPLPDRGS

T1 sequence (P00491 whole entry): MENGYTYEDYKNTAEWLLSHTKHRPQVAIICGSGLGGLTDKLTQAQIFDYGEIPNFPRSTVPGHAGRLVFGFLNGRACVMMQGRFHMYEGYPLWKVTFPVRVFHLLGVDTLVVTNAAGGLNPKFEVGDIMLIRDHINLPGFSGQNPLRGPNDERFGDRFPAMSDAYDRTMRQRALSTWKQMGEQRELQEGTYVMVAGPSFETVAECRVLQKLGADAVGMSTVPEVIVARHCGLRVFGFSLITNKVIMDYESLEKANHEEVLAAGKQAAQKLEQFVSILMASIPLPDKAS

Kd (human PNP [1]) | times more active inhibitor than 9-deazahypoxanthine analogue 11 (human PNP [2]) | time to complete inhibition of PNP catalytic activity (blood PNP; single 50 nmol dose, i.p. injection) | inhibition of blood PNP catalytic activity (blood PNP; single oral dose, for a period of 25 days) | SMILES
2.1 pM | – | – | – | Nc1nc2c(CNC(CO)CO)c[nH]c2c(=O)[nH]1 [Compound 8, 2-Amino-7-{[(1,3-dihydroxypropan-2-yl)amino]methyl}-3,5-dihydro-4H-pyrrolo[3,2-d]pyrimidin-4-one]
– | 2 – 3 times | – | – | Nc1nc2c(CN[C@H](CO)[C@H](O)CO)c[nH]c2c(=O)[nH]1 [Compound 9, 2-Amino-7-({[(2R,3S)-1,3,4-trihydroxybutan-2-yl]amino}methyl)-3,5-dihydro-4Hpyrrolo[3,2-d]pyrimidin-4-one]
5.2 pM | – | ≤ 20 min | > 50% | O=c1[nH]cnc2c(CNC(CO)CO)c[nH]c12 [Compound 10]
